The record followed here is patent US11083709B2, “Compounds, compositions, and methods of increasing CFTR activity” (Proteostasis Therapeutics, Inc., priority 2015, dated 2021).

The target in the first test is T1, ΔF508-CFTR (Homo sapiens, UniProt P13569, DEL508-508).
T1 construct: primary lung epithelial cells (hBEs) homozygous for the Cystic Fibrosis-causing ΔF508 mutation; endogenous in cells; host or cells: primary lung epithelial cells (hBEs) homozygous for ΔF508
T1 sequence (P13569 with tags, fused parts or gaps DEL508-508): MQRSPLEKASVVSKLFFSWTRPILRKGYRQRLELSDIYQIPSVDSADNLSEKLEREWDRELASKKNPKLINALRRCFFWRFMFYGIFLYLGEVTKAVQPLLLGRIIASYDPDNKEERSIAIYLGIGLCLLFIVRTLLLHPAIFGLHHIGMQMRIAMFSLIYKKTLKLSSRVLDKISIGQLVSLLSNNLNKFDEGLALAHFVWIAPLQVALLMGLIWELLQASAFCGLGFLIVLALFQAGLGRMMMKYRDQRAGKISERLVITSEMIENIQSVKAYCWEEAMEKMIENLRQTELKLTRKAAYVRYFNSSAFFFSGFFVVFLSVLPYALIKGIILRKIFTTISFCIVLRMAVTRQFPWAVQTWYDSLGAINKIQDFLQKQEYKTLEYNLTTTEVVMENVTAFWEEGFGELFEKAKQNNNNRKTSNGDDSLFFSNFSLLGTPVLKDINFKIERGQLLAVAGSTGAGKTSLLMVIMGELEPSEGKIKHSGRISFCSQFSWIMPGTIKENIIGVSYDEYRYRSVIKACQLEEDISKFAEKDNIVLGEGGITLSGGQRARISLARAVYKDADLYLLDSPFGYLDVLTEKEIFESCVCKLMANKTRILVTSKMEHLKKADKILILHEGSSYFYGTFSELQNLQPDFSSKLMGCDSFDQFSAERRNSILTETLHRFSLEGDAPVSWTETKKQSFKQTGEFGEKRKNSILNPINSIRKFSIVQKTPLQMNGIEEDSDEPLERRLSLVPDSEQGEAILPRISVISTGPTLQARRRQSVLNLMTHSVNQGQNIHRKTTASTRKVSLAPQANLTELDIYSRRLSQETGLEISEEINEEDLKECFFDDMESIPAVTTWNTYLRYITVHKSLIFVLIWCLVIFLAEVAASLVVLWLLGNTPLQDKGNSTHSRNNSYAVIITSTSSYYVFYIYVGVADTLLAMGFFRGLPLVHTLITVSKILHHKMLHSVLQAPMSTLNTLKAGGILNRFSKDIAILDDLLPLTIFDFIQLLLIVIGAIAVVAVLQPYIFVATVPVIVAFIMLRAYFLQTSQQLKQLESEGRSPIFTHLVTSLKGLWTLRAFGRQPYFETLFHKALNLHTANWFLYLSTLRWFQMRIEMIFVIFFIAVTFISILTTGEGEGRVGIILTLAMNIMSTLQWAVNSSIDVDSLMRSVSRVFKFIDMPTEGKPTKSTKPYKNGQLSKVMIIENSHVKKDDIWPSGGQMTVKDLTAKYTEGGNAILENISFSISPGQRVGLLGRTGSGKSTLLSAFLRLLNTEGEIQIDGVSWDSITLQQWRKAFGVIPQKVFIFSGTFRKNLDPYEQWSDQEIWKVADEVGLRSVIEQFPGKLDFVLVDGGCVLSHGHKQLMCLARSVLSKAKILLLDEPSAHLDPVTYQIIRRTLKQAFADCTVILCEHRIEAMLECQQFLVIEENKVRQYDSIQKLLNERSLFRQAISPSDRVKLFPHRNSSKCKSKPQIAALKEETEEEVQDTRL
Put plainly: hBE equivalent current (Ieq) assay, primary lung epithelial cells homozygous for ΔF508. The class given is cell-based. The following applies: compound alone run at 10 uM, relative to VX-809 at 1 uM; 24 h treatment. On the procedure: Primary lung epithelial cells homozygous for the Cystic Fibrosis-causing ΔF508 mutation were differentiated for a minimum of 4 weeks in an air-liquid interface on Costar 24 well HTS filter plates prior to the equivalent current (Ieq) measurements. Cells were apically mucus-washed for 30 minutes 24h prior to treatment with compounds. The basolateral media was removed and replaced with media containing the compound of interest diluted to its final concentration from DMSO stocks. Treated cells were incubated at 37° C. and 5% CO2 for 24 hours. At the end of the treatment period, the media was changed to the Ieq experimental solution for 30 minutes before the experiment and plates are maintained in a CO2-free incubator during this period. The plates containing the cells were then placed in pre-warmed heating blocks at 36° C.±0.5 for 15 minutes before measurements are taken. The transepithelial voltage (VT) and conductance (GT) were measured using a custom 24 channel current clamp (TECC-24) with 24 well electrode manifold. The Ieq assay measurements were made following additions with standardized time periods: • 1. The baseline VT and GT values were measured for approximately 20 minutes. • 2. Benzamil was added to block ENaC for 15 minutes. • 3. Forskolin plus VX-770 (ivacaftor) were added to maximally activate ΔF508-CFTR for 27 minutes. • 4. Bumetanide was added to inhibit the NaK2Cl cotransporter and shut-off secretion of chloride.
The activity data captured was the area under the curve (AUC) for the traces of the equivalent chloride current. The AUC was collected from the time of the forskolin/VX-770 addition until the inhibition by bumetanide addition. Correction in response to compound treatment was scored as the increase in the AUC for compound-treated samples over that of vehicle-treated samples.
The results are shown below in Table 2. ++ indicates activity ≥25% run at 10 uM of VX-809 at 1 uM, + indicates activity 10 to <25% run at 10 uM of VX-809 at 1 uM, ** indicates activity ≥200% of VX-809 (1 uM) with compound at 10 uM and VX-809 at 1 uM; * indicates activity 100-200% of VX-809 (1 uM) with compound at 10 uM and VX-809 at 1 uM. ^## indicates activity ≥200% of VX-809 (3 uM) with compound at 10 uM and VX-809 at 3 uM; ^# indicates activity 100-200% of VX-809 (3 uM) with compound at 10 uM and VX-809 at 3 uM.
For the compound `O=C(NCCCn1ccnc1)c1cc(-c2ccccc2)co1` [Example 11, N-(3-(1H-imidazol-1-yl)propyl)-4-phenylfuran-2-carboxamide], the “leq: activity relative to VX-809 (AUC of equivalent chloride current)” value is on record as “++ (++ indicates activity ≥25% run at 10 uM of VX-809 at 1 uM)”.

Take `O=C(NCC1CCCO1)c1cc(-c2ccccc2)co1` (stereo not shown) [Example 9, 4-phenyl-N-((tetrahydrofuran-2-yl)methyl)furan-2-carboxamide]: the “leq: activity relative to VX-809 (AUC of equivalent chloride current)” value is on record as “++ (++ indicates activity ≥25% run at 10 uM of VX-809 at 1 uM)”. Still for that read-out and setting: next, `O=C(NCCN1CCOCC1)c1cc(-c2ccccc2)no1` [Example 3, N-(2-morpholinoethyl)-3-phenylisoxazole-5-carboxamide]: “++ (++ indicates activity ≥25% run at 10 uM of VX-809 at 1 uM)”; `O=C(NCC1CCCO1)c1cc(-c2ccccc2)no1` (stereo not shown) [Example 2, 3-phenyl-N-((tetrahydrofuran-2-yl)methyl)isoxazole-5-carboxamide]: “++ (++ indicates activity ≥25% run at 10 uM of VX-809 at 1 uM)”. With `COCCNC(=O)c1cc(-c2ccccc2)no1` [Example 1, N-(2-methoxyethyl)-3-phenylisoxazole-5-carboxamide], the “leq: activity relative to VX-809 (AUC of equivalent chloride current)” value is recorded as “++ (++ indicates activity ≥25% run at 10 uM of VX-809 at 1 uM)”.

Staying with this test, now noted: compound at 10 uM and VX-809 at 1 uM, relative to VX-809 (1 uM); 24 h treatment.
Regarding `C[C@@H](O)c1nnc(C[C@H]2C[C@@H](NC(=O)c3cc(-c4cccs4)no3)C2)o1` [Example 45, N-[(1s,3s)-3-([5-[(1R)-1-Hydroxyethyl]-1,3,4-oxadiazol-2-yl]methyl)cyclobutyl]-3-(thiophen-2-yl)-1,2-oxazole-5-carboxamide], the “leq: activity of compound with VX-809, % of VX-809 (AUC of equivalent chloride current)” value is “* (* indicates activity 100-200% of VX-809 (1 uM) with compound at 10 uM and VX-809 at 1 uM)”. On the same count and under the same terms, with `O=C(N[C@H]1C[C@@H](n2cc(CO)nn2)C1)c1cc(-c2ccccc2)no1` [Example 29, N-(cis-3-(4-(hydroxymethyl)-1H-1,2,3-triazol-1-yl)cyclobutyl)-3-phenylisoxazole-5-carboxamide] the entry was “** (** indicates activity ≥200% of VX-809 (1 uM) with compound at 10 uM and VX-809 at 1 uM)”; with `O=C(NC1CC(c2nnc(C3COC3)o2)C1)c1cc(-c2ccccc2)no1` (stereo not drawn) [Example 22, N-trans-3-(5-(oxetan-3-yl)-1,3,4-oxadiazol-2-yl)cyclobutyl)-3-phenylisoxazole-5-carboxamide], “* (* indicates activity 100-200% of VX-809 (1 uM) with compound at 10 uM and VX-809 at 1 uM)”. In the case of `C[C@@H](O)c1nnc(CC2CC(NC(=O)c3cc(-c4ccccc4)no3)C2)s1` (stereo partly drawn) [Example 41, 3-Phenyl-N-[(1s,3s)-3-([5-[(1R)-1-hydroxyethyl]-1,3,4-thiadiazol-2-yl]methyl)cyclobutyl]-1,2-oxazole-5-carboxamide], the “leq: activity of compound with VX-809, % of VX-809 (AUC of equivalent chloride current)” value is “** (** indicates activity ≥200% of VX-809 (1 uM) with compound at 10 uM and VX-809 at 1 uM)”. In the case of `C[C@@H](O)c1nnc([C@H]2C[C@H](NC(=O)c3onc(-c4ccccc4)c3F)C2)o1` [Example 50, 4-Fluoro-3-phenyl-N-[(1r,3r)-3-[5-[(1R)-1-hydroxyethyl]-1,3,4-oxadiazol-2-yl]cyclobutyl]-1,2-oxazole-5-carboxamide], the “leq: activity of compound with VX-809, % of VX-809 (AUC of equivalent chloride current)” value was “* (* indicates activity 100-200% of VX-809 (1 uM) with compound at 10 uM and VX-809 at 1 uM)”. On to `O=C(N[C@H]1C[C@@H](n2nncc2CO)C1)c1cc(-c2ccccc2)no1` [Example 28, N-(cis-3-(5-(hydroxymethyl)-1H-1,2,3-triazol-1-yl)cyclobutyl)-3-phenylisoxazole-5-carboxamide], for which the “leq: activity of compound with VX-809, % of VX-809 (AUC of equivalent chloride current)” value was “** (** indicates activity ≥200% of VX-809 (1 uM) with compound at 10 uM and VX-809 at 1 uM)”. Consider `C[C@@H](O)c1nnc(CC2CC(NC(=O)c3cc(-c4ccccc4)no3)C2)o1` (stereo partly drawn) [Example 37, N-((1S,3s)-3-((5-((R)-1-hydroxyethyl)-1,3,4-oxadiazol-2-yl)methyl)cyclobutyl)-3-phenylisoxazole-5-carboxamide], for which the “leq: activity of compound with VX-809, % of VX-809 (AUC of equivalent chloride current)” value was “** (** indicates activity ≥200% of VX-809 (1 uM) with compound at 10 uM and VX-809 at 1 uM)”.

Turning to `C[C@@H](O)c1nnc([C@H]2C[C@H](NC(=O)c3cc(-c4ccc(F)cc4)no3)C2)o1` [Example 36, 3-(4-fluorophenyl)-N-(trans-3-(5-((R)-1-hydroxyethyl)-1,3,4-oxadiazol-2-yl)cyclobutyl)isoxazole-5-carboxamide], the “leq: activity of compound with VX-809, % of VX-809 (AUC of equivalent chloride current)” value is “* (* indicates activity 100-200% of VX-809 (1 uM) with compound at 10 uM and VX-809 at 1 uM)”.

A further test deals with CFTR in R117H/F508del HBEs. The test is described as follows: Ussing measurements, R117H/F508del HBEs. The class given is cell-based, human. The settings on record: Ussing; Compound A 10 uM, ivacaftor 1 uM. The protocol:
(§1) As discussed above, Ussing measurements was used to measure CFTR activity. In this method, primary lung epithelial cells (hBEs) with a Cystic Fibrosis-causing class III mutation were differentiated for a minimum of 4 weeks in an air-liquid interface on SnapWell™ filter plates prior to the Ussing measurements. Cells were apically mucus-washed for 30 minutes prior to treatment with compounds. The basolateral media was removed and replaced with media containing the compound of interest diluted to its final concentration from DMSO stocks. Treated cells were incubated at 37° C. and 5% CO2 for 24 hours. At the end of the treatment period, the cells on filters were transferred to the Ussing chamber and equilibrated for 30 minutes. The short-circuit current was measured in voltage clamp-mode (Vhold=0 mV), and the entire assay was conducted at a temperature of 36° C.-36.5° C. Once the voltages stabilized, the chambers were clamped, and data was recorded by pulse readings every 5 seconds. Following baseline current stabilization, the following additions were applied and the changes in current and resistance of the cells was monitored: • 1. Benzamil to the apical chamber to inhibit ENaC sodium channel. • 2. Forskolin to both chambers to activate ΔF508-CFTR by phosphorylation. • 3. Ivacaftor or Genistein to the apical chamber to potentiate ΔF508-CFTR channel opening. • 4. CFTRinh-172 to the apical chamber to inhibit ΔF508-CFTR Cl-conductance.
(§2) The forskolin-sensitive current and inhibitable current (that potentiated current that is blocked by CFTRinh-172) were measured as the specific activity of the ΔF508-CFTR channel, and increase in response to compound in this activity over that observed in vehicle-treated samples were identified as the correction of ΔF508-CFTR function imparted by the compound tested.
(§3) The results are shown below in Tables 5 and 6. Compound A is 10 uM and VX-809 is 3 uM and ivacaftor is 1 uM.
On to `CC(C)(C)c1cc(C(C)(C)C)c(NC(=O)c2c[nH]c3ccccc3c2=O)cc1O` [ivacaftor, reference compound], for which the “Activity in R117H/F508del HBEs (relative to ivacaftor activity)” value was determined as 100%.

In a further test the target is T1, ΔF508-CFTR. The test is described as follows: Ussing measurements, hBEs homozygous for ΔF508. The class given is cell-based. The settings on record: compound at 10 uM and VX-809 at 3 uM, relative to VX-809 (3 uM); 24 h treatment. On the procedure: As discussed above, Ussing measurements can be used to measure CFTR activity. In this example, primary lung epithelial cells (hBEs) homozygous for the Cystic Fibrosis-causing ΔF508 mutation were differentiated for a minimum of 4 weeks in an air-liquid interface on SnapWell filter plates prior to the Ussing measurements. Cells were apically mucus-washed for 30 minutes prior to treatment with compounds. The basolateral media was removed and replaced with media containing the compound of interest diluted to its final concentration from DMSO stocks. Treated cells were incubated at 37° C. and 5% CO2 for 24 hours. […] The short-circuit current was measured in voltage clamp-mode (Vhold=0 mV), and the entire assay was conducted at a temperature of 36° C.-36.5° C. Once the voltages stabilized, the chambers were clamped, and data was recorded by pulse readings every 5 seconds. Following baseline current stabilization, the following additions were applied and the changes in current and resistance of the cells was monitored: • 1. […]
The inhibitable current (that current that is blocked by CFTRinh-172) is measured as the specific activity of the ΔF508-CFTR channel, and increases in response to compound in this activity over that observed in vehicle-treated samples are identified as the correction of ΔF508-CFTR function imparted by the compound tested. […]
For the compound `O=C(N[C@H]1C[C@H](n2nncc2CO)C1)c1cc(-c2ccccc2)no1` [Example 5, N-(trans-3-(5-(hydroxymethyl)-1H-1,2,3-triazol-1-yl)cyclobutyl)-3-phenylisoxazole-5-carboxamide], the “Ussing: activity of compound with VX-809, % of VX-809” value was “## (## indicates activity ≥200% of VX-809 (3 uM) with compound at 10 uM and VX-809 at 3 uM)”.

A further test relates to CFTR in G551D/F508del HBEs. The test is described as follows: Ussing measurements, G551D/F508del HBEs. The class given is cell-based, human. The following applies: Ussing; Compound A 10 uM, ivacaftor 1 uM. The protocol:
as §1, §2, §3
As to `CC(C)(C)c1cc(C(C)(C)C)c(NC(=O)c2c[nH]c3ccccc3c2=O)cc1O` [ivacaftor, reference compound], the “Activity in G551D/F508del HBEs (relative to ivacaftor activity)” value was 100%.
